Assay results as given in US5242942A, “Anticonvulsant fructopyranose cyclic sulfites and sulfates” (McNeilab, Inc., priority 1992, dated 1993).

Tests used:
tonic extensor seizure = assay: maximal electroshock test (MES); assay type: in vivo, mouse (albino male CRS-CD1); conditions: PO, mouse, 4 hr, read-out: % Block (MES Test, mouse)
Description: The compounds of formula (I) are particularly useful as anticonvulsant agents in mammals including humans. The anticonvulsant activity of the subject compounds was determined using a standard "maximal electroshock test" (MES). In this test, activity is indicated by a block of the […] extensor seizure caused by application of an electric shock to mice via corneal electrodes, as described by Swinyard et al. in J. Pharmacol. Expt. Ther. 1952, 106, 319, and recorded as % block. A more recent description of current anticonvulsant drug screening is given by Swinyard in Epilepsia 1978, 19, 409. The anticonvulsant activity of the compounds of this invention tested according to the Swinyard 1952 method is shown in the following Table I.
In the test, albino male CRS-CD1 mice weighing between 18-25 g were used in all experiments (obtained from Charles River). They were allowed food and water ad libitum and were used only once. The electroshock apparatus and the corneal electrodes were purchased from Wahlquist Instrument Company, Salt Lake City, Utah.
Maximal electroshock seizures were induced by the delivery of a 60 Hertz (Hz) current of 50 milliamps (mA) intensity to the mouse through corneal electrodes for 0.2 seconds as originally described by Swinyard et al. (1952). This stimulus intensity is approximately 4 to 6 times the current producing 100% tonic extensor convulsions. During the validation of the MES test, the duration of the various seizure components following maximal electroshock were measured as follows: hindleg tonic flexion was measured from the time of the application of the stimulus to the time of onset of hindleg tonic extension (i.e. when the hindlegs deviate by greater than an angle of 90° from the torso), hindleg tonic extensor was measured from the time of extensor thrust to the onset of generalized clonus, and terminal clonus was measured from the beginning to the end of bilateral rhythmic clonic jerking. Mortality was also recorded. The duration of each seizure component agreed well with the values previously reported by Tedeschi et al. in J. Pharmacol. Expt. Ther. 1955, 116, 107. The corneal electrodes were concave so that saline could be applied to the electrodes to reduce mortality. If this procedure is followed, mortality should always be less than 40% in control mice. Thus, at an electroshock stimulus of 60 Hz, 50 mA and 0.2 seconds duration, the order of convulsive components and the percentage of control animals displaying the behaviors should be as follows: tonic flexion (100%), tonic extension (100%) and clonus (100%) with less than 40% mortality.
For testing compounds, the abolition of the tonic extensor component was the endpoint. Animals were dosed orally (PO) with either vehicle or test drug and at a specified time were given a maximal electric shock through corneal electrodes blotted with saline (as described above). A minimum of 10 animals were used per group and the percentage of animals in the group without tonic hindlimb extension recorded. Determination of ED50 values (that dose of drug inhibiting 50% of the tonic extensor seizures) is shown below in Table I.

rat diuresis study = assay type: in vivo, rat (male Wistar); conditions: average of five animals; for Water Intake: control 15.0; for Urine Output: control 17.6
From the text: Evidence for the inhibition of carbonic anhydrase by compounds of the formula (I) can also be obtained by a diuresis study, such as described by A. Weiner in Goodman and Gilman's The Pharmacological Basis of Therapeutics, 8th ed.; Goodman Gilman, A.; Rall, T. W.; Nies, A. S.; Taylor, P., Eds.; Pergamon Press: New York, 1990; pp 716-718. An increase in urine akalinity accompanied with an increase in water intake and urine output provides an indirect indication of carbonic anhydrase inhibition activity. Male Wistar rats having a weight of 250-300 g were dosed orally (PO) and housed in cages that allowed for the quantitative measure of fluid intake and urine output. Water intake and urine output were measured at 24 hours versus control, whereas urine pH, obtained via pH meter, was measured at 4 and 24 hours versus control. The results of this study, which are the average of five animals, are reported below in Table III. […] Such data is also an indication of the usefulness of the compounds of formula (I) as diuretics in the treatment of hypertension, congestive heart failure and other types of edema. The determination of suitable dosages for such compounds for the treatment of hypertension and congestive heart failure and other types of edema is within the skill of the art.

Total Acid Output = assay: pylorus-ligated rat test, gastric antisecretory activity; assay type: in vivo, rat (male Charles River Sprague-Dawley derived); conditions: IP, 200 mg/kg
Description: The gastric antisecretory activity of the compounds shown in Table II was determined by the pylorus-ligated rat test described by Shay et al. in Gastroenterol. 1954, 26, 906. In this method, male Charles River Sprague-Dawley derived rats weighing 150-300 grams were deprived of food but not water for 18-24 hours prior to use. Water was withheld during the experiment, however. The rats were weighed, lightly anesthetized with ether and the pylorus ligated according to the method of Shay et al., supra. The treatment or vehicle control was then administered intraperitoneally (IP) or orally (PO). When administered by the IP route, the administration was done 30 minutes before ligation. When administered by the PO route, the administration was done prior to ligation (about 1/2 to 3 hours before). Rats were housed two per cage and sacrificed with carbon dioxide 3 hours after ligation. Their stomachs were removed, rinsed, and contents emptied into a graduated centrifuge tube. The tubes were centrifuged, the volume of gastric juice was recorded, and any samples obviously contaminated by feces, food or blood were eliminated. A 1 mL aliquot of gastric juice was titrated with 0.1N NaOH to a pH of 7.0-7.4. The volume of gastric juice secreted, the acid concentration, and the product of the volume times the concentration, i.e. the total amount of acid secreted, were measured. The total acid output was calculated by multiplying the volume of gastric juices collected times the hydrogen ion concentration (amount of NaOH added to a sample to reach a pH of 7.0-7.4) and dividing that value by 10. The mean value of the total acid output for a control group of rats was then subtracted from the mean value of the total acid output for the group of rats tested at the same dose. That value was then divided by the mean value of total acid output for the control group and the resulting number was multiplied by 100 to provide a Percent Inhibition value, which values are reported in Table II. The […] was determined statistically as the dose at which a 50% inhibition would be realized.

CC1(C)O[C@H]2[C@@H]3OS(=O)(=O)O[C@@H]3CO[C@@]2(COS(=O)(=O)NCC(F)(F)F)O1 [Example 12, 2,3-O-(1-Methylethylidene)-4,5-O-sulfonyl-β-D-fructopyranose (2,2,2-Trifluoroethyl)sulfamate]
responders at 10 mg/kg (tonic extensor seizure): 40%

Cc1ccc(S(=O)(=O)N=S2(=O)O[C@@H]3[C@@H](CO[C@@]4(COS(N)(=O)=O)OC(C)(C)O[C@@H]34)O2)cc1 (stereo partly drawn) [Example 20, 2,3-O-(1-Methylethylidene)-4,5-O-[N-(4-methylbenzenesulfonyl)imidosulfonyl]-β-D-fructopyranose Sulfamate]
responders at 300 mg/kg (tonic extensor seizure): 75%

CCNS(=O)(=O)OC[C@@]12OC[C@H]3OS(=O)(=O)O[C@H]3[C@@H]1OC(C)(C)O2 [Example 5, 2,3-O-(1-Methylethylidene)-4,5-O-sulfonyl-β-D-fructopyranose Ethylsulfamate]
Urine pH (rat diuresis study; 1.2 mg/kg PO, 4 hours, control 6.98): 9.03
Urine pH (rat diuresis study; 1.2 mg/kg PO, 24 hours, control 6.43): 6.41
Water Intake (rat diuresis study; 1.2 mg/kg PO, 24 hours): 15.8 mL
Urine Output (rat diuresis study; 1.2 mg/kg PO, 24 hours): 19.9 mL
responders at 10 mg/kg (tonic extensor seizure): 100%

CCN(CC)S(=O)(=O)OC[C@@]12OC[C@H]3OS(=O)(=O)O[C@H]3[C@@H]1OC(C)(C)O2 [Example 14, 2,3-O-(1-Methylethylidene)-4,5-O-sulfonyl-β-D-fructopyranose Diethylsulfamate]
responders at 10 mg/kg (tonic extensor seizure): 10%

CC1(C)O[C@H]2[C@@H]3OS(=O)(=O)O[C@@H]3CO[C@@]2(COS(=O)(=O)NCc2ccccc2)O1 [Example 8, 2,3-O-(1-Methylethylidene)-4,5-O-sulfonyl-β-D-fructopyranose Phenylmethylsulfamate]
responders at 75 mg/kg (tonic extensor seizure): 100%

CN(C)S(=O)(=O)OC[C@@]12OC[C@H]3OS(=O)(=O)O[C@H]3[C@@H]1OC(C)(C)O2 [Example 13, 2,3-O-(1-Methylethylidene)-4,5-O-sulfonyl-β-D-fructopyranose Dimethylsulfamate]
Urine pH (rat diuresis study; 2.1 mg/kg PO, 4 hours, control 6.98): 8.93
Urine pH (rat diuresis study; 2.1 mg/kg PO, 24 hours, control 6.43): 6.81
Water Intake (rat diuresis study; 2.1 mg/kg PO, 24 hours): 21 mL
Urine Output (rat diuresis study; 2.1 mg/kg PO, 24 hours): 23.2 mL
responders at 10 mg/kg (tonic extensor seizure): 70%

CC1(C)O[C@H]2[C@@H]3OS(=O)(=O)O[C@@H]3CO[C@@]2(COS(=O)(=O)NC2CCC2)O1 [Example 10, 2,3-O-(1-Methylethylidene)-4,5-O-sulfonyl-β-D-fructopyranose Cyclobutylsulfamate]
responders at 10 mg/kg (tonic extensor seizure): 90%

CCCCCCCCNS(=O)(=O)OC[C@@]12OC[C@H]3OS(=O)(=O)O[C@H]3[C@@H]1OC(C)(C)O2 [Example 6, 2,3-O-(1-Methylethylidene)-4,5-O-sulfonyl-β-D-fructopyranose Octylsulfamate]
responders at 75 mg/kg (tonic extensor seizure): 100%

CCC1(CC)O[C@H]2[C@@H]3OS(=O)(=O)O[C@@H]3CO[C@@]2(COS(N)(=O)=O)O1 [Example 18, 2,3-O-(1-Ethylpropylidene)-4,5-O-sulfonyl-β-D-fructopyranose Sulfamate]
responders at 75 mg/kg (tonic extensor seizure): 100%

CC1(C)O[C@H]2[C@@H]3OS(=O)(=O)O[C@@H]3CO[C@@]2(COS(=O)(=O)N=[N+]=[N-])O1 [Example 15, 2,3-O-(1-Methylethylidene)-4,5-O-sulfonyl-β-D-fructopyranose Azidosulfate]
Percent Inhibition of Total Acid Output (Total Acid Output): 96%
responders at 35 mg/kg (tonic extensor seizure): 100%

C=CCNS(=O)(=O)OC[C@@]12OC[C@H]3OS(=O)(=O)O[C@H]3[C@@H]1OC(C)(C)O2 [Example 7, 2,3-O-(1-Methylethylidene)-4,5-O-sulfonyl-β-D-fructopyranose 2-Propenylsulfamate]
responders at 10 mg/kg (tonic extensor seizure): 70%

CCCCNS(=O)(=O)OC[C@@]12OC[C@H]3OS(=O)(=O)O[C@H]3[C@@H]1OC(C)(C)O2 [Example 4, 2,3-O-(1-Methylethylidene)-4,5-O-sulfonyl-β-D-fructopyranose Butylsulfamate]
responders at 35 mg/kg (tonic extensor seizure): 100%

Cc1ccc(S(=O)(=O)N=S2O[C@@H]3[C@@H](CO[C@@]4(COS(N)(=O)=O)OC(C)(C)O[C@@H]34)O2)cc1 (stereo partly drawn) [Example 19, 2,3-O-(1-Methylethylidene)-4,5-O-[N-(4-methylbenzenesulfonyl)imidosulfinyl]-β-D-fructopyranose Sulfamate]
responders at 300 mg/kg (tonic extensor seizure): 80%

CNS(=O)(=O)OC[C@@]12OC[C@H]3OS(=O)(=O)O[C@H]3[C@@H]1OC(C)(C)O2 [Example 3, 2,3-O-(1-Methylethylidene)-4,5-O-sulfonyl-β-D-fructopyranose Methylsulfamate]
Urine pH (rat diuresis study; 2.7 mg/kg PO, 4 hours, control 6.98): 9.02
Urine pH (rat diuresis study; 2.7 mg/kg PO, 24 hours, control 6.43): 6.78
Water Intake (rat diuresis study; 2.7 mg/kg PO, 24 hours): 23.6 mL
Urine Output (rat diuresis study; 2.7 mg/kg PO, 24 hours): 28.8 mL
responders at 10 mg/kg (tonic extensor seizure): 100%

CC1(C)O[C@H]2[C@@H]3O[S@@](=O)O[C@@H]3CO[C@@]2(COS(N)(=O)=O)O1 [Example 16, (S)-2,3-O-(1-Methylethylidene)-4,5 -O-sulfinyl-β-D-fructopyranose Sulfamate]
responders at 75 mg/kg (tonic extensor seizure): 40%

NS(=O)(=O)OC[C@@]12OC[C@H]3OS(=O)(=O)O[C@H]3[C@@H]1OC1(CCCCC1)O2 [Example 21, 2,3-O-(Cyclohexylidene)-4,5-O-sulfonyl-β-D-fructopyranose Sulfamate]
Percent Inhibition of Total Acid Output (Total Acid Output): 27%

CC1(C)O[C@H]2[C@@H]3O[S@](=O)O[C@@H]3CO[C@@]2(COS(N)(=O)=O)O1 [Example 17, (R)-2,3-O-(1-Methylethylidene)-4,5-O-sulfinyl-β-D-fructopyranose Sulfamate]
responders at 35 mg/kg (tonic extensor seizure): 90%

CC1(C)O[C@@H]2[C@H]3OS(=O)(=O)O[C@H]3CO[C@]2(COS(N)(=O)=O)O1 [Example 2, 2,3-O-(1-Methylethylidene)-4,5-O-sulfonyl-β-L-fructopyranose Sulfamate]
responders at 75 mg/kg (tonic extensor seizure): 80%
